Reference: patent publication US20250034216A1, “STEREOSELECTIVE COVALENT LIGANDS FOR ONCOGENIC AND IMMUNOLOGICAL PROTEINS” (The Scripps Research Institute, priority 2021, published 2025)

Legend:
Assay in all cases: IA-DTB cysteine engagement
Assay type in all cases: binding
Conditions in all cases: 22Rv1 cells, 20 μM probe, 1 h, relative to DMSO
HARS2_C175 = target: T1, HARS2_C175 (Homo sapiens, UniProt P49590)
T1 construct: endogenous in cells; host or cells: 22Rv1
T1 sequence (P49590 34-506): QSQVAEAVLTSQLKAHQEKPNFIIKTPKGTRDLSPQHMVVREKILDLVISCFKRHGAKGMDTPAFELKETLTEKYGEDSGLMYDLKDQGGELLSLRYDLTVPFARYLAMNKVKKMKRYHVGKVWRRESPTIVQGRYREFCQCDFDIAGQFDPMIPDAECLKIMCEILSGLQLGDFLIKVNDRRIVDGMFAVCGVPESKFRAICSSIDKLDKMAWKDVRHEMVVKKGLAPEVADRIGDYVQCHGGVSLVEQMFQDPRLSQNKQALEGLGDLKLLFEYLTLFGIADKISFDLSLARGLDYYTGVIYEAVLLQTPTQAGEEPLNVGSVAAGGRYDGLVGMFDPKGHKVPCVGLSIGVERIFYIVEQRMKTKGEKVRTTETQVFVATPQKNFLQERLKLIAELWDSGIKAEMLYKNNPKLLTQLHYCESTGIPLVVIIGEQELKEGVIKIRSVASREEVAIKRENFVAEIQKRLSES
Method in brief: (§1)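 Competitive chemoproteomics: residual cysteine reactivity toward IA-DTB in lysates from probe-treated cells was quantified by TMT reporter ions relative to DMSO-treated controls. Replicates sharing cell line, probe, concentration and duration were averaged.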

MTMR12_C152 = target: T2, MTMR12_C152 (Homo sapiens, UniProt Q9C0I1)
T2 construct: endogenous in cells; host or cells: 22Rv1
T2 sequence (Q9C0I1 1-747): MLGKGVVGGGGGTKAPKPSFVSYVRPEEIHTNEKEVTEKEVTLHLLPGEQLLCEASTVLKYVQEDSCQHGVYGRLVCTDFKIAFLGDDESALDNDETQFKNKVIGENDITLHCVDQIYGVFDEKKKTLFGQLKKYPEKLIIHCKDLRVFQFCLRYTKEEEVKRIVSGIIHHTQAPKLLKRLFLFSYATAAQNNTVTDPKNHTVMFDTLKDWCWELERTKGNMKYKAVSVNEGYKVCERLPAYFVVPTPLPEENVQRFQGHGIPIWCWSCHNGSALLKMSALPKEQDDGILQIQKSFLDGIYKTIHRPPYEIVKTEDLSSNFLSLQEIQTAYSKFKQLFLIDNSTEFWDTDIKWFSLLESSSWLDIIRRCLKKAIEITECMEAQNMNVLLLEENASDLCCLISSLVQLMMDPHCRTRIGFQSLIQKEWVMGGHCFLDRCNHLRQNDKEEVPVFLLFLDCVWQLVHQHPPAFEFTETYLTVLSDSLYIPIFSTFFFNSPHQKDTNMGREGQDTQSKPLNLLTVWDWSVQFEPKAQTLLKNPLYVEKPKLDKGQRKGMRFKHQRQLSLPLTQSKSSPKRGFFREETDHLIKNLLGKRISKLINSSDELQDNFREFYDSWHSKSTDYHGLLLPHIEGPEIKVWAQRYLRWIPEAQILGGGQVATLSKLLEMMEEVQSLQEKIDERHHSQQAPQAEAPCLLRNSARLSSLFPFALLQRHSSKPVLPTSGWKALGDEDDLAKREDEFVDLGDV
Method in brief: as §1

SNX11_C181 = target: T3, SNX11_C181 (Homo sapiens, UniProt Q9Y5W9)
T3 construct: endogenous in cells; host or cells: 22Rv1
T3 sequence (Q9Y5W9 1-270): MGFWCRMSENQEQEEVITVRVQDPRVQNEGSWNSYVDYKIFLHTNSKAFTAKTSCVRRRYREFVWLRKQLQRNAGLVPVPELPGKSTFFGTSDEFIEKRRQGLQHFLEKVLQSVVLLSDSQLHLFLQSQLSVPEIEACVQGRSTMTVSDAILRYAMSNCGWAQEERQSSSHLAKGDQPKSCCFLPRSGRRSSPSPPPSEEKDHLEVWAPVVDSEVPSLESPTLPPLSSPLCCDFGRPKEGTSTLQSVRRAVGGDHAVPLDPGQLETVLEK
Method in brief: as §1

% engagement HARS2_C175 (HARS2_C175) [%] | % engagement MTMR12_C152 (MTMR12_C152) [%] | % engagement SNX11_C181 (SNX11_C181) [%] | Compound
100 | 40.5 | 54.5 | C=CC(=O)N1C[C@@H](c2ccc(Br)cc2)[C@H]1C(=O)Nc1cccc2cccnc12 [MY-1A, (2S,3R)-1-acryloyl-3-(4-bromophenyl)-N-(quinolin-8-yl)azetidine-2-carboxamide]
67 | 31 | 68.5 | C=CC(=O)N1C[C@H](c2ccc(Br)cc2)[C@@H]1C(=O)Nc1cccc2cccnc12 [MY-1B, (2R,3S)-1-acryloyl-3-(4-bromophenyl)-N-(quinolin-8-yl)azetidine-2-carboxamide]
11.5 | 12 | 17 | C=CC(=O)N1C[C@H](c2ccc(Br)cc2)[C@H]1C(=O)Nc1cccc2cccnc12 [MY-3A, (2S,3S)-1-acryloyl-3-(4-bromophenyl)-N-(quinolin-8-yl)azetidine-2-carboxamide]
44.5 | 91.5 | 23 | C=CC(=O)N1C[C@H](c2ccc(Br)cc2)[C@H]1C(=O)Nc1cccc2cccnc12 [MY-3B, (2S,3S)-1-acryloyl-3-(4-bromophenyl)-N-(quinolin-8-yl)azetidine-2-carboxamide]
